Among the data in patent US11590134B2, “Aminopyrimidine amide autophagy inhibitors and methods of use thereof” (Deciphera Pharmaceuticals, LLC, priority 2019, dated 2023) are IC50 values, retold here.

Structures are written as SMILES.

The target of one test is T1, ULK2 kinase (Homo sapiens, UniProt Q8IYT8).
T1 construct: purchased Eurofins 14-772
Nature of the test: Biochemical assay for ULK2 (coupled pyruvate kinase/lactate dehydrogenase assay). The settings on record: 9.7 nM ULK2 (residues 1-306), myelin basic protein substrate, 1 mM ATP; read-out: ULK2.2. How it is done:
(§1) Activity of ULK2 kinase was determined spectroscopically using a coupled pyruvate kinase/lactate dehydrogenase assay that continuously monitors the ATP hydrolysis-dependent oxidation of NADH (e.g., Schindler et al. Science (2000) 289: 1938-1942). Assays were conducted in 384-well plates (100 uL final volume) using 9.7 nM ULK2 (Eurofins CAT #14-772), 0.25 mg/mL myelin basic protein, 1.5 units pyruvate kinase, 2.1 units lactate dehydrogenase, 1 mM phosphoenol pyruvate, 0.28 mM NADH and 1 mM ATP in assay buffer (100 mM Tris, pH 7.5, 15 mM MgCl2, 0.5 mM DTT, 0.1% octyl-glucoside, 0.002% (w/v) BSA, and 0.002% Triton X-100). Inhibition of ULK2 was measured by adding serial diluted test compound (final assay concentration of 1% DMSO). A decrease in absorption at 340 nm was monitored continuously for 6 hours at 30° C. on a multi-mode microplate reader (BioTek). The reaction rate was calculated using the 2-3 h time frame. The reaction rate at each concentration of compound was converted to percent inhibition using controls (i.e. reaction with no test compound and reaction with a known inhibitor) and IC50 values were calculated by fitting a four-parameter sigmoidal curve to the data using Prism (GraphPad software).

A further test has as its target T2, ULK1 kinase (Homo sapiens, UniProt O75385).
T2 construct: purchased Eurofins 14-959
T2 sequence (O75385 with tags, fused parts or gaps): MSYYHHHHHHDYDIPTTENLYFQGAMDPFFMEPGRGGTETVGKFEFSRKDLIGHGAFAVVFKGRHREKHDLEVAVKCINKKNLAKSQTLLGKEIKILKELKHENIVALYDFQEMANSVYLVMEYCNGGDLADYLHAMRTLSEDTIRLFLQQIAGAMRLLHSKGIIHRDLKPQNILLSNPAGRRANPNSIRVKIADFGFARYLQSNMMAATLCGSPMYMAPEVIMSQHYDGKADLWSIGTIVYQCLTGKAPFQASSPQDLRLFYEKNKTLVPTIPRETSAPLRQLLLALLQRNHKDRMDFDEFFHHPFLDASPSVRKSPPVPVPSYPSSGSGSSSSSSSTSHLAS
Nature of the test: Biochemical assay for ULK1.2 (coupled pyruvate kinase/lactate dehydrogenase assay). Particulars: 19 nM ULK1 (residues 1-314), myelin basic protein substrate, 1 mM ATP. The procedure: as §1, with “ULK1” for “ULK2”, “19” for “9.7”, “#14-959),” for “#14-772),”

The target of the next test is T3, LRRK2 kinase (Homo sapiens, UniProt Q5S007).
T3 construct: (residues 970-2528; ID NO; 4); purchased Thermo Fisher
Nature of the test: Biochemical assay for LRRK2 (coupled pyruvate kinase/lactate dehydrogenase assay). The settings on record: 26.4 nM LRRK2 (residues 970-2528), peptide substrate, 1 mM ATP. The procedure:
Activity of LRRK2 kinase was determined spectroscopically using a coupled pyruvate kinase/lactate dehydrogenase assay that continuously monitors the ATP hydrolysis-dependent oxidation of NADH (e.g., Schindler et al. Science (2000) 289: 1938-1942). Assays were conducted in 384-well plates (100 uL final volume) using 26.4 nM LRRK2 (Thermo Fisher), 0.1 mM peptide substrate (RLGRDKYKTLRQIRQ (SEQ ID NO: 6)), 1.5 units pyruvate kinase, 2.1 units lactate dehydrogenase, 1 mM phosphoenol pyruvate, 0.28 mM NADH and 1 mM ATP in assay buffer (100 mM Tris, pH 7.5, 15 mM MgCl2, 0.5 mM DTT, 0.004% (w/v) BSA, and 0.004% Triton X-100). Inhibition of LRRK2 was measured by adding serial diluted test compound (final assay concentration of 1% DMSO). A decrease in absorption at 340 nm was monitored continuously for 6 hours at 30° C. on a multi-mode microplate reader (BioTek). The reaction rate was calculated using the 2-3 h time frame. The reaction rate at each concentration of compound was converted to percent inhibition using controls (i.e. reaction with no test compound and reaction with a known inhibitor) and IC50 values were calculated using software routines in Prism (GraphPad software).

T1 sequence (Q8IYT8 with tags, fused parts or gaps): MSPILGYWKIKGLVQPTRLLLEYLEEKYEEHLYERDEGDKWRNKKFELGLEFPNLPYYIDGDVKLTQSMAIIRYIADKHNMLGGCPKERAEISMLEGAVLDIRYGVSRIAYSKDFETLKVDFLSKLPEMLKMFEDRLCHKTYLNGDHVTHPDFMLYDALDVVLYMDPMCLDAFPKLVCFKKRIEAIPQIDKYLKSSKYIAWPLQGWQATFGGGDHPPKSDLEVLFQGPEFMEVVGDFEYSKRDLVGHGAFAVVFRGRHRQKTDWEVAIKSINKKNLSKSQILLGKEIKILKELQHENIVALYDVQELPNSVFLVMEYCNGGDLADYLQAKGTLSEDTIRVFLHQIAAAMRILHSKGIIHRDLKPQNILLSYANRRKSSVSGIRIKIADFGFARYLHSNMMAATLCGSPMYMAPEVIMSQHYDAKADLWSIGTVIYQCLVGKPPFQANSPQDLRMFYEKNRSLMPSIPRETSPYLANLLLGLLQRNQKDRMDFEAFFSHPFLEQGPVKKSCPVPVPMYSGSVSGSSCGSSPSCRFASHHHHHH
T3 sequence (Q5S007 with tags, fused parts or gaps): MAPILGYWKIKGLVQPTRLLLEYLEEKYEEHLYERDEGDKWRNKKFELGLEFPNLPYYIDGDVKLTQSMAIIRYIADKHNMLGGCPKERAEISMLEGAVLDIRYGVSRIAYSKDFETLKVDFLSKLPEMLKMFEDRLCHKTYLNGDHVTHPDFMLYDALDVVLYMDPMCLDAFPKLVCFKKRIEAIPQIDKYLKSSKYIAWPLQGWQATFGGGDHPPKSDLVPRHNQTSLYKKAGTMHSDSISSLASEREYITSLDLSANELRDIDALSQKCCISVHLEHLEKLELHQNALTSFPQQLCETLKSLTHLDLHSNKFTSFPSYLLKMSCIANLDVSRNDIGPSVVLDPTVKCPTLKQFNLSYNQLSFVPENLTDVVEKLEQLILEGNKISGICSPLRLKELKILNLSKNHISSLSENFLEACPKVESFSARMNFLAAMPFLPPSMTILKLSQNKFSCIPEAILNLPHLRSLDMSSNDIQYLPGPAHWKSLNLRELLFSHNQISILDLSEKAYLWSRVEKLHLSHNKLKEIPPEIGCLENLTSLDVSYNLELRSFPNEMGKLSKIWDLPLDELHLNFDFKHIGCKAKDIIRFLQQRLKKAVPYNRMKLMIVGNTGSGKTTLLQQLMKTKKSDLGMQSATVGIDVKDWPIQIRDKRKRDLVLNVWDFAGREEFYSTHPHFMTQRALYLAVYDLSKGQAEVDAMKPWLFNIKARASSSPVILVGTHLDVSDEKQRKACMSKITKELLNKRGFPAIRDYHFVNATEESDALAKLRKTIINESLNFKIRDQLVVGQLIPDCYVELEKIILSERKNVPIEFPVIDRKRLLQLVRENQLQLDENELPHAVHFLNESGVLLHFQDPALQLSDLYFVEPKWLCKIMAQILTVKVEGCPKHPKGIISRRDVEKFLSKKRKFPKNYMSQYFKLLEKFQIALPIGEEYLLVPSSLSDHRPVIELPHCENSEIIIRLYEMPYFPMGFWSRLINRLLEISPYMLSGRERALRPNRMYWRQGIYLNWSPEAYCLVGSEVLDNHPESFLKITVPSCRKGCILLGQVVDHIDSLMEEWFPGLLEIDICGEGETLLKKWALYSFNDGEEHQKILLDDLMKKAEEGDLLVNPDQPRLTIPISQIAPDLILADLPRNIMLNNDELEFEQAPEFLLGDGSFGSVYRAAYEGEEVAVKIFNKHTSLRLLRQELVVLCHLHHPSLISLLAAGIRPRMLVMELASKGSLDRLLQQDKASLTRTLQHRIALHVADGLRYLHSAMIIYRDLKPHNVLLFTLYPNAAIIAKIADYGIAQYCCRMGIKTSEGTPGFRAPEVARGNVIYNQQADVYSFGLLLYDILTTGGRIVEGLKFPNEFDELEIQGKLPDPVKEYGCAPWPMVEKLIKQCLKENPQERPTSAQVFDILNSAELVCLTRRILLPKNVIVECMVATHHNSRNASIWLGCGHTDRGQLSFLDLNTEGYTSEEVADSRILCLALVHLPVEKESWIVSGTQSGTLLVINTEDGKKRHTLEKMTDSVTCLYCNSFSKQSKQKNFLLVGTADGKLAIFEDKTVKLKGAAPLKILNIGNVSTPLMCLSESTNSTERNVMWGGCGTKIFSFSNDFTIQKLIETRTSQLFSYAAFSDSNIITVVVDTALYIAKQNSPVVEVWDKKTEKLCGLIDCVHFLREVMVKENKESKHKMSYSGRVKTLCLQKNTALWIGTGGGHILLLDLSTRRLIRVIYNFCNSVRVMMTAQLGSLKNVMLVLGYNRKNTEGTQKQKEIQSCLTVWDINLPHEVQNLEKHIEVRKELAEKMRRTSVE

As for `Cc1cc(N2CCN(C)CC2)ncc1Nc1ncc(C(F)(F)F)c(NCCCNC(=O)C2CCC2)n1` [Example 5], the IC50 on ULK2 kinase lay within 100 to 500 nM; against ULK1 kinase, 100 to 500 nM; at LRRK2 kinase it was 600 to 20000 nM.

As for `Cc1cc(N2CCOCC2)ncc1Nc1ncc(C(F)(F)F)c(NCCCNC(=O)C2CCC2)n1` [Example 6], the results for the IC50 on ULK2 kinase, at ULK1 kinase and on LRRK2 kinase were 500 to 20000 nM, 500 to 20000 nM and 300 to 600 nM, respectively.

`COc1cc(N2CCN(C)CC2)ccc1Nc1ncc(C2CC2)c(NCCCNC(=O)C2CCC2)n1` [Example 11]: the IC50 at ULK1 kinase was in the range of 500 to 20000 nM; against LRRK2 kinase it was 600 to 20000 nM.

Regarding `Cc1cc(C2CCNCC2)ccc1Nc1ncc(Cl)c(NCCCN(C)C(=O)C2CCC2)n1` [Example 15], the IC50 was in the range of 100 to 500 nM on ULK1 kinase and 1 to 100 nM at LRRK2 kinase.

With `Cc1cc(C2CCN(C)CC2)ccc1Nc1ncc(Cl)c(NCCCN(C)C(=O)C2CCC2)n1` [Example 17], the values for the IC50 against ULK1 kinase and against LRRK2 kinase were 100 to 500 nM and 1 to 100 nM, respectively.

With `Cc1cc(C2CCN(C)CC2)ccc1Nc1ncc(C(F)(F)F)c(NCCCN(C)C(=O)C2CCC2)n1` [Example 18], the IC50 on ULK1 kinase lay in the range of 1 to 25 nM; against LRRK2 kinase it was 1 to 100 nM.

`Cc1nn(C2CCNCC2)cc1Nc1ncc(C2CC2)c(NCCCNC(=O)C2CCC2)n1` [Example 24]: the IC50 on ULK1 kinase lay in the range of 100 to 500 nM; against LRRK2 kinase, 600 to 20000 nM.

In the case of `Cc1nn(C2CCN(C)CC2)cc1Nc1ncc(C2CC2)c(NCCCNC(=O)C2CCC2)n1` [Example 25], the IC50 at ULK1 kinase was in the range of 100 to 500 nM; on LRRK2 kinase, 600 to 20000 nM.

In the case of `Cc1nn(C2CCN(C)CC2)cc1Nc1ncc(Cl)c(NCCCN(C)C(=O)C2CCC2)n1` [Example 27], the IC50 at ULK2 kinase is 25 to 100 nM; at ULK1 kinase, 1 to 25 nM; on LRRK2 kinase, 1 to 100 nM.

Take `[2H]C([2H])([2H])N1CCC(n2cc(Nc3ncc(Br)c(NCCCNC(=O)C4CCC4)n3)c(C)n2)CC1` [Example 29]: the IC50 on ULK1 kinase lay in the range of 25 to 100 nM; against LRRK2 kinase, 100 to 300 nM.

Take `Cc1cc(N2CCN(C)CC2)ncc1Nc1cc(NCCCNC(=O)C2CCC2)c(C(F)(F)F)cn1` [Example 31, N-(3-((2-((4-methyl-6-(4-methylpiperazin-1-yl)pyridin-3-yl)amino)-5-(trifluoromethyl)pyridin-4-yl)amino)propyl)cyclobutanecarboxamide]: the IC50 against ULK1 kinase lay within 100 to 500 nM.
